This is an account of results in patent US12365687B2 (Hoffmann-La Roche Inc., priority 2021, dated 2025).

Structures are written as SMILES. pKi: −log10 of the molar value. Where two headings read alike, the source gives them in different places.

The target of experiment [1] is human GABAA α2β2γ1 receptor (Homo sapiens (Human), UniProt P47869+Q8N1C3). Kind of experiment: Radioligand binding assay for γ1-containing GABAA subtypes, [3H]RO7239181 competition (α2β2γ1). As to the method:
(§1) The affinity of compounds at GABAA γ1 subunit-containing receptors was measured by competition for [^3H]RO7239181 (67.3 Ci/mmol; Roche) binding to membranes from HEK293F cells (ThermoFisher R79007) expressing human (transiently transfected) receptors of composition α5β2γ1, α2β2γ1, α1β2γ1.
(§2) Harvested pellets from HEK293F cells expressing the different GABAA receptor subtypes were resuspended in Mannitol Buffer pH 7.2-7.4 (Mannitol 0.29 M, Triethylamine 10 mM, Acetic acid 10 mM, EDTA 1 mM plus protease inhibitors (20 tablets Complete, Roche Diagnostics Cat. No. 05 056 489 001 per liter)), washed two times and then resuspended at 1:10 to 1:15 dilution in the same buffer. Cell disruption was performed by stirring the suspension in a Parr vessel #4637 at 435 psi for 15 minutes, and then the suspensions were centrifuged at 1000×g for 15 minutes at 4° C. (Beckman Avanti J-HC; rotor JS-4.2). The supernatant (S1) was transferred in a 2 l Schott flask and the pellet (P1) was resuspended with Mannitol Buffer up to 175 ml. The resuspended pellet was transferred into a 250 ml Corning centrifugal beaker and centrifuged at 1500×g for 10 minutes at 4° C. (Beckman Avanti J-HC; rotor JS-4.2). The supernatant (S1) was then transferred in the 2 l Schott flask and the pellet was discarded. The supernatants (S1) were centrifuged in 500 ml Beckman polypropylene centrifugal beaker at 15′000×g for 30 minutes at 4° C. (Beckman Avanti J-20 XP; rotor JLA-10.500). The pellet (P2) was resuspended with Mannitol Buffer 1:1 and frozen at −80° C. The supernatant (S2) was centrifuged in 100 ml Beckman polypropylene centrifugal tubes at 48000×g for 50 minutes at 4° C. (Beckman Avanti J-20 XP; rotor JA-18). The supernatant (S3) was discarded and the pellet (P3) was resuspended with 1:1 Mannitol Buffer. The P2 and P3 protein concentration was determined with the BIORAD Standard assay method with bovine serum albumin as standard and measured on the NANO-Drop 1000. The membrane suspension was aliquots (500 μl per tube) and stored at −80° C. until required.
(§3) Membrane homogenates were resuspended and polytronised (Polytron PT1200E Kinematica AG) in Potassium Phosphate 10 mM, KCl 100 mM binding buffer at pH 7.4 to a final assay concentration determined with a previous experiment.
(§4) Assays were incubated to equilibrium for 1 hour at 4° C. and then, membranes were filtered onto unifilter (96-well white microplate with bonded GF/C filters preincubated 20-50 minutes in 0.3% Polyethylenimine) with a Filtermate 196 harvester (Packard BioScience) and washed 4 times with cold Potassium Phosphate 10 mM pH 7.4, KCl 100 mM binding buffer. After anhydrousing, filter-retained radioactivity was detected by liquid scintillation counting. Ki values were calculated using Excel-Fit (Microsoft) and are the means of two determinations.

For experiment [2], the target named is human GABAA α5β2γ1 receptor (Homo sapiens (Human), UniProt P31644+Q8N1C3). Kind of experiment: Radioligand binding assay for γ1-containing GABAA subtypes, [3H]RO7239181 competition (α5β2γ1). As to the method:
as §1, §2, §3, §4

Experiment [3] concerns the target human GABAA α1β3γ2 receptor (Homo sapiens (Human), UniProt P14867+P18507). Kind of experiment: Radioligand binding assay for γ2-containing GABAA subtypes, [3H]Flumazenil competition (α1β3γ2). The settings on record: for γ2/γ1 Selectivity Ratio: Ki α1β3γ2 (nM)/Ki α2β2γ1 (nM); for LogSel: Log[Ki α1β3γ2 (nM)/Ki α2β2γ1 (nM)]. As to the method: The affinity of compounds at GABAA γ2 subunit-containing receptors was measured by competition for [^3H]Flumazenil (81.1 Ci/mmol; Roche) binding to HEK293F cells expressing human (transiently transfected) receptors of composition α1β3γ2.
Harvested pellets from HEK293F cells expressing the different GABAA γ2 receptor subtypes were resuspended in Mannitol Buffer pH 7.2-7.4 and processed as described above for the cells expressing the GABAA γ1 subunit-containing receptors.
Assays were incubated to equilibrium for 1 hour at 4° C. and harvested onto GF/C uni-filters (Packard) by filtration using a Packard harvester and washing with ice-cold wash buffer (50 mM Tris; pH 7.5). After anhydrousing, filter-retained radioactivity was detected by liquid scintillation counting. Ki values were calculated using Excel-Fit (Microsoft) and are the means of two determinations.

The target in experiment [4] is α2β2γ1 GABAA receptor subtype (Homo sapiens (Human), UniProt P47869+Q8N1C3). Kind of experiment: Two-electrode voltage clamp electrophysiology in Xenopus oocytes expressing GABAA receptors (modulation of GABA EC20 current). It is filed as cell-based. The settings on record: for Efficacy (GABA)%: % modulation of GABA EC20 = 100*(Fold increase-1), α2β2γ1 oocytes, compound at approx. 30-fold Ki; for Fold increase h-GABA-A α2β2γ1 oocyte @ 30-fold Ki: Xenopus oocytes expressing α2β2γ1, compound at approx. 30-fold its Ki α2β2γ1, GABA EC20 current. The procedure:
Xenopus laevis oocytes at maturation stages V-VI were used for the expression of cloned mRNA encoding GABAA receptor subunits. Oocytes ready for RNA micro-injection were bought from Ecocyte, Castrop-Rauxel, Germany and stored in modified Barth's medium (composition in mM: NaCl 88, KCl 1, NaHCO3 2.4, HEPES 10, MgSO4 0.82, CaNO3 0.33, CaCl2 0.33, pH=7.5) at 20° C. until the experiment.
Oocytes were plated in 96-well plates for microinjection using the Roboinject automated instrument (MultiChannelSystems, Reutlingen, Germany). Approximately 50 nL of an aqueous solution containing the RNA transcripts for the subunits of the desired GABAA receptor subtype was injected into each oocyte. […] Oocytes were kept in modified Barth's medium (composition in mM: NaCl 88, KCl 1, NaHCO3 […], HEPES 10, MgSO4 0.82, CaNO3 0.33, CaCl2 0.33, pH=7.5) at 20° C. until the experiment.
Electrophysiological experiments were performed using the Roboocyte instrument (MultiChannelSystems, Reutlingen, Germany) on days 3 to 5 after the micro-injection of mRNA. During the experiment the oocytes were constantly superfused by a solution containing (in mM) NaCl 90, KCl 1, HEPES 5, MgCl2 1, CaCl2 1 (pH 7.4). Oocytes were impaled by two glass microelectrodes (resistance: 0.5-0.8 MΩ) which were filled with a solution containing KCl 1M+K-acetate 1.5 M and voltage-clamped to −80 mV. The recordings were performed at room temperature using the Roboocyte two-electrode voltage clamp system (Multichannelsystem). After an initial equilibration period of 1.5 min GABA was added for 1.5 min at a concentration evoking approximately 20% of a maximal current response (EC20). After another rest interval of 2.5 min GABA was again added evoking a response of similar amplitude and shape. […] Current traces were recorded at a digitization rate of 10 Hz during and shortly before and after the GABA application.
Each compound and concentration was tested on at least 3 oocytes. Different oocytes were used for different compound concentrations.
For the analysis, the digitized current traces of the first and second GABA response were superimposed and, if necessary, rescaled to equal maximal amplitudes. The ratio between the two responses during the time interval of test compound application was calculated point by point. The extremum of the resulting “ratio trace” was taken as the efficacy (“Fold increase”) of the compound expressed as “% modulation of GABA EC20” (100*(Fold increase-1)).

The mark [5] stands for this setting: Ki h-GABAA α2β2γ1, [3H]RO7239181 competition binding, human GABAA α2β2γ1.
The mark [6] stands for this setting: Ki h-GABAA α2β2γ1, displacement of [3H]RO7239181, membranes of HEK293F cells expressing human receptors, means of two determinations.

Regarding `COC1CN(C(=O)c2nc3n(n2)-c2ccc(Cl)c(Cl)c2C(c2c(F)cccc2F)=NC3)C1` [Example 11, [7,8-dichloro-6-(2,6-difluorophenyl)-4H-[1,2,4]triazolo[1,5-a][1,4]benzodiazepin-2-yl]-(3-methoxyazetidin-1-yl)methanone], the pKi – broadly, the negative decadic logarithm of the Ki, by convention in mol/L – in experiment [1] (setting [5]) was 8.57. This compound also had a pKi in experiment [1] (setting [6]) of 8.57. For the same compound, in experiment [2], the pKi was 9.08. In experiment [3], the pKi is 6.35, the “γ2/γ1 Selectivity Ratio” value turned out to be 166.3 and the LogSel stood at 2.22. In experiment [4], the “Efficacy (GABA)%” value is recorded as 62% and the “Fold increase h-GABA-A α2β2γ1 oocyte @ 30-fold Ki” value was 1.62.
Turning to `CNC(=O)c1cn2c(n1)CN=C(c1ncccc1F)c1c-2ccc(Cl)c1Cl` [Example 12, 7,8-dichloro-6-(3-fluoro-2-pyridyl)-N-methyl-4H-imidazo[1,2-a][1,4]benzodiazepine-2-carboxamide], the pKi in experiment [1] (setting [5]) was 7.44; in experiment [1] (setting [6]) it was 7.44; in experiment [2], 8.03; in experiment [3] it was 6.30. Further, the “γ2/γ1 Selectivity Ratio” value in experiment [3] is 13.8. For the same compound, the LogSel in experiment [3] is 1.14. In addition, the “Efficacy (GABA)%” value in experiment [4] was 125%. Besides, the “Fold increase h-GABA-A α2β2γ1 oocyte @ 30-fold Ki” value in experiment [4] is reported as 2.25.
In the case of `C[C@@H]1N=C(c2c(F)cccc2F)c2c(ccc(Cl)c2Cl)-n2nc(CO)nc21` [Example 13, [(4S)-7,8-dichloro-6-(2,6-difluorophenyl)-4-methyl-4H-[1,2,4]triazolo[1,5-a][1,4]benzodiazepin-2-yl]methanol], the pKi in experiment [1] (setting [5]) is 8.59. In addition, in experiment [1] (setting [6]), the pKi was 8.59. This compound gave a pKi in experiment [2] of 9.22. In experiment [3], the pKi was 6.43, the “γ2/γ1 Selectivity Ratio” value was 142.7 and the LogSel was determined as 2.15. In addition, in experiment [4], the “Efficacy (GABA)%” value amounted to 59% and the “Fold increase h-GABA-A α2β2γ1 oocyte @ 30-fold Ki” value came out at 1.59.
Turning to `C[C@@H]1N=C(c2c(F)cccc2F)c2c(ccc(Cl)c2Cl)-n2ncnc21` [Example 15, (4S)-7,8-dichloro-6-(2,6-difluorophenyl)-4-methyl-4H-[1,2,4]triazolo[1,5-a][1,4]benzodiazepine], in experiment [1] (setting [5]), the pKi is 8.22. Moreover, the pKi in experiment [1] (setting [6]) was 8.22. The pKi in experiment [2] was 9.40. In experiment [3], the pKi was 6.56, the “γ2/γ1 Selectivity Ratio” value came to 46.3 and the LogSel amounted to 1.67. In addition, in experiment [4], the “Efficacy (GABA)%” value was found to be 62% and the “Fold increase h-GABA-A α2β2γ1 oocyte @ 30-fold Ki” value was 1.62.
In experiment [1] (setting [5]), `[2H]C([2H])([2H])OC1CN(C(=O)c2nc3n(n2)-c2ccc(Cl)c(Cl)c2C(c2c(F)cccc2F)=N[C@H]3C)C1` [Example 17, [(4S)-7,8-dichloro-6-(2,6-difluorophenyl)-4-methyl-4H-[1,2,4]triazolo[1,5-a][1,4]benzodiazepin-2-yl]-[3-(trideuteriomethoxy)azetidin-1-yl]methanone] had a pKi of 8.59. The compound further showed a pKi in experiment [1] (setting [6]) of 8.59. The compound further had a pKi in experiment [2] of 8.89. In experiment [3], the pKi was 6.24, the “γ2/γ1 Selectivity Ratio” value was 223.3 and the LogSel is recorded as 2.35. Further, in experiment [4], the “Efficacy (GABA)%” value amounted to 44% and the “Fold increase h-GABA-A α2β2γ1 oocyte @ 30-fold Ki” value came to 1.44.
Compound `C[C@@H]1N=C(c2c(F)cccc2F)c2c(ccc(Cl)c2Cl)-n2nc(C(F)F)nc21` [Example 18] showed a pKi in experiment [1] (setting [5]) of 7.92. In addition, the pKi in experiment [1] (setting [6]) was 7.92. The same compound showed a pKi in experiment [2] of 9.16. In experiment [3], the pKi was 6.36, the “γ2/γ1 Selectivity Ratio” value is on record as 36.8 and the LogSel is 1.57. Besides, in experiment [4], the “Efficacy (GABA)%” value is given as 70% and the “Fold increase h-GABA-A α2β2γ1 oocyte @ 30-fold Ki” value is 1.70.
`[2H]C([2H])([2H])N(C(=O)c1nc2n(n1)-c1ccc(Cl)c(Cl)c1C(c1c(F)cccc1F)=N[C@H]2C)C([2H])([2H])[2H]` [Example 19, (4S)-7,8-dichlor-6-(2,6-difluorophenyl)-4-methyl-N,N-bis(trideuteriomethyl)-4H-[1,2,4]triazolo[1,5-a][1,4]benzodiazepine-2-carboxamide]: the pKi in experiment [1] (Ki h-GABAA α2β2γ1, Table 3, reference compounds) is 7.49; in experiment [1] (setting [5]), 7.49; in experiment [1] (setting [6]), 7.49; in experiment [2] it was 8.70; in experiment [3] it was 5.58; in experiment [3] (read-out: Ki h-GABAA α1β3γ2, Table 3, reference compounds) it was 5.58. The “γ2/γ1 Selectivity Ratio” value in experiment [3] and in experiment [3] (Table 3) was 81.5 in each case. Besides, the LogSel in experiment [3] and in experiment [3] (Table 3) was 1.91 each time. In experiment [4], the “Efficacy (GABA)%” value was 97%. Besides, the “Fold increase h-GABA-A α2β2γ1 oocyte @ 30-fold Ki” value in experiment [4] stood at 1.97.
In experiment [1] (setting [5]), `[2H]C([2H])([2H])NC(=O)c1nc2n(n1)-c1ccc(Cl)c(Cl)c1C(c1c(F)cccc1F)=N[C@H]2C` [Example 20, (4S)-7,8-dichloro-6-(2,6-difluorophenyl)-4-methyl-N-(trideuteriomethyl)-4H-[1,2,4]triazolo[1,5-a][1,4]benzodiazepine-2-carboxamide] gave a pKi of 8.28. This compound also had a pKi in experiment [1] (setting [6]) of 8.28. In addition, the pKi in experiment [2] is 9.05. In experiment [3], the pKi was 6.23, the “γ2/γ1 Selectivity Ratio” value is 113.1 and the LogSel amounted to 2.05. Further, in experiment [4], the “Efficacy (GABA)%” value worked out at 78% and the “Fold increase h-GABA-A α2β2γ1 oocyte @ 30-fold Ki” value came out at 1.78.
